Experimental data reported in ChEMBL document CHEMBL1201861, “Genomics of Drug Sensitity in Cancer screening data, Wellcome Trust Sanger Institute”.

Experiments:
Assay in all cases: cells
TE-1 = assay type: functional, cell-based, Homo sapiens; details: Homo sapiens, TE-1;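 further: growth inhibition of the human TE-1 cell line, read out with a cell viability assay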
MEG-01 = assay type: functional, cell-based, Homo sapiens; details: Homo sapiens, MEG-01;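 further: growth inhibition of MEG-01 cells, read out by a cell viability assay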
Description: SANGER: Inhibition of human MEG-01 cell growth in a cell viability assay.

TE-6 = assay type: functional, cell-based, Homo sapiens; details: Homo sapiens, TE-6;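 further: growth inhibition of TE-6 cells, read out with a cell viability assay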
Description: SANGER: Inhibition of human TE-6 cell growth in a cell viability assay.

ES5 = assay type: functional, cell-based, Homo sapiens; details: Homo sapiens, ES5;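 further: growth inhibition of human ES5 cells, read out by a cell viability assay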
Description: SANGER: Inhibition of human ES5 cell growth in a cell viability assay.

DEL = assay type: functional, cell-based, Homo sapiens; details: Homo sapiens, DEL;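 further: growth inhibition of the human DEL cell line, read out with a cell viability assay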
A388 = assay type: functional, cell-based; details: Homo sapiens;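 further: growth inhibition of human A388 cells, read out with a cell viability assay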
Description: SANGER: Inhibition of human A388 cell growth in a cell viability assay.

EW-13 = assay type: functional, cell-based, Homo sapiens; details: Homo sapiens, EW-13; read-out: IC50;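 further: growth inhibition of EW-13 cells, read out with a cell viability assay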
Description: SANGER: Inhibition of human EW-13 cell growth in a cell viability assay.

SW 954 = assay type: functional, cell-based, Homo sapiens; details: Homo sapiens, SW 954;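 further: growth inhibition of SW954 human cancer cells, read out as cell viability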
Description: SANGER: Inhibition of human SW954 cell growth in a cell viability assay.

Ramos-2G6-4C10 = assay type: functional, cell-based, Homo sapiens; details: Homo sapiens, Ramos-2G6-4C10;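 further: growth inhibition of the cell line, measured by a cell viability read-out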
Description: SANGER: Inhibition of human Ramos-2G6-4C10 cell growth in a cell viability assay.

SHP77 = assay type: functional, cell-based, Homo sapiens, SHP-77; details: Homo sapiens, SHP77;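 further: growth inhibition of human SHP-77 cells measured by a cell viability assay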
IST-MEL1 = assay type: functional, cell-based, Homo sapiens; details: Homo sapiens, IST-MEL1;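 further: growth inhibition of the cell line, read out with a cell viability assay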
K5 = assay type: functional, cell-based, Homo sapiens; details: Homo sapiens, K5
Description: SANGER: Inhibition of human K5 cell growth in a cell viability assay.

A3-KAW = assay type: functional, cell-based, Homo sapiens; details: Homo sapiens, A3-KAW;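 further: growth inhibition of human A3-KAW cells, read out with a cell viability assay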
Description: SANGER: Inhibition of human A3-KAW cell growth in a cell viability assay.

MHH-NB-11 = assay type: functional, cell-based, Homo sapiens; details: Homo sapiens, MHH-NB-11;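 further: growth inhibition of human MHH-NB-11 cells, read out by a cell viability assay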
Description: SANGER: Inhibition of human MHH-NB-11 cell growth in a cell viability assay.

SNB-75 = assay type: functional, cell-based, Homo sapiens; details: Homo sapiens, SNB-75;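 further: cell viability assay measuring growth inhibition of human SNB-75 cells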
Description: SANGER: Inhibition of human SNB75 cell growth in a cell viability assay.

LB2518-MEL = assay type: functional, cell-based; details: Homo sapiens;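 further: growth inhibition of human LB2518-MEL cells, measured with a cell viability assay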
NCI-H82 = assay type: functional, cell-based, Homo sapiens; details: Homo sapiens, NCI-H82;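 further: growth inhibition of NCI-H82 cells, measured with a cell viability readout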
Description: SANGER: Inhibition of human NCI-H82 cell growth in a cell viability assay.

Calu-6 = assay type: functional, cell-based, Homo sapiens; details: Homo sapiens, Calu-6;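 further: growth of human Calu-6 cells, read out by a cell viability assay, IC50 marking inhibition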
Description: SANGER: Inhibition of human Calu-6 cell growth in a cell viability assay.

NMC-G1 = assay type: functional, cell-based, Homo sapiens; details: Homo sapiens, NMC-G1;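 further: growth inhibition of the NMC-G1 cell line, measured with a cell viability read-out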
Description: SANGER: Inhibition of human NMC-G1 cell growth in a cell viability assay.

SK-LMS-1 = assay type: functional, cell-based, Homo sapiens; details: Homo sapiens, SK-LMS-1;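 further: growth inhibition of human SK-LMS-1 cells, read out with a cell viability assay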
MOLT-4 = assay type: functional, cell-based, Homo sapiens; details: Homo sapiens, MOLT-4;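 further: growth inhibition of MOLT-4 cells, determined with a cell viability readout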
Description: SANGER: Inhibition of human MOLT-4 cell growth in a cell viability assay.

HDLM-2 = assay type: functional, cell-based, Homo sapiens; details: Homo sapiens, HDLM-2;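 further: cell viability assay measuring suppression of HDLM-2 proliferation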
Description: SANGER: Inhibition of human HDLM-2 cell growth in a cell viability assay.

GAK = assay type: functional, cell-based, Homo sapiens; details: Homo sapiens, GAK;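 further: cell growth inhibition read out by a cell viability assay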
Description: SANGER: Inhibition of human GAK cell growth in a cell viability assay.

SW982 = assay type: functional, cell-based; details: Homo sapiens;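 further: growth inhibition of SW982 cells, read out with a cell viability assay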
Description: SANGER: Inhibition of human SW982 cell growth in a cell viability assay.

LS-123 = assay type: functional, cell-based, Homo sapiens; details: Homo sapiens, LS-123
MS-1 = assay type: functional, cell-based, Homo sapiens; details: Homo sapiens, MS-1
Description: SANGER: Inhibition of human MS-1 cell growth in a cell viability assay.

LB996-RCC = assay type: functional, cell-based, Homo sapiens; details: Homo sapiens, LB996-RCC
Description: SANGER: Inhibition of human LB996-RCC cell growth in a cell viability assay.

CTB-1 = assay type: functional, cell-based, Homo sapiens; details: Homo sapiens, CTB-1
Description: SANGER: Inhibition of human CTB-1 cell growth in a cell viability assay.

LXF-289 cell line = assay type: functional, cell-based; details: Homo sapiens
Description: SANGER: Inhibition of human LXF-289 cell growth in a cell viability assay.

SW684 = assay type: functional, cell-based, Homo sapiens; details: Homo sapiens, SW684; read-out: IC50;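 further: growth inhibition of human SW684 cells, measured by a cell viability assay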
TE-9 = assay type: functional, cell-based, Homo sapiens; details: Homo sapiens, TE-9;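 further: cell growth inhibition, measured with a cell viability readout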
Description: SANGER: Inhibition of human TE-9 cell growth in a cell viability assay.

SF-539 = assay type: functional, cell-based, Homo sapiens; details: Homo sapiens, SF-539;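 further: Read-out is a cell viability assay, with IC50 reflecting inhibition of cell growth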
Description: SANGER: Inhibition of human SF539 cell growth in a cell viability assay.

NTERA-2-cl-D1 = assay type: functional, cell-based, Homo sapiens; details: Homo sapiens, NTERA-2-cl-D1;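 further: inhibition of cell growth, measured with a cell viability assay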
Description: SANGER: Inhibition of human NTERA-S-cl-D1 cell growth in a cell viability assay.

NCI-H209 = assay type: functional, cell-based, Homo sapiens; details: Homo sapiens, NCI-H209;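 further: growth inhibition of human NCI-H209 cells, measured by a cell viability assay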
Description: SANGER: Inhibition of human NCI-H209 cell growth in a cell viability assay.

L-428 = assay type: functional, cell-based, Homo sapiens; details: Homo sapiens, L-428
Description: SANGER: Inhibition of human L-428 cell growth in a cell viability assay.

NB13 = assay type: functional, cell-based, Homo sapiens; details: Homo sapiens, NB13;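 further: cell viability readout measuring growth inhibition of human NB13 cells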
Description: SANGER: Inhibition of human NB13 cell growth in a cell viability assay.

ES8 = assay type: functional, cell-based, Homo sapiens; details: Homo sapiens, ES8;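 further: growth inhibition of human ES8 cells, read out with a cell viability assay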
Description: SANGER: Inhibition of human ES8 cell growth in a cell viability assay.

ES6 = assay type: functional, cell-based; details: Homo sapiens;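 further: growth inhibition of human ES6 cells, read out with a cell viability assay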
Description: SANGER: Inhibition of human ES6 cell growth in a cell viability assay.

TGW = assay type: functional, cell-based, Homo sapiens; details: Homo sapiens, TGW;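 further: growth inhibition of human TGW cells, read out with a cell viability assay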
Description: SANGER: Inhibition of human TGW cell growth in a cell viability assay.

Becker = assay type: functional, cell-based, Homo sapiens; details: Homo sapiens, Becker;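 further: growth inhibition of Becker cells, read out with a cell viability assay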
Description: SANGER: Inhibition of human Becker cell growth in a cell viability assay.

DB = assay type: functional, cell-based, Homo sapiens; details: Homo sapiens, DB
Description: SANGER: Inhibition of human DB cell growth in a cell viability assay.

NB69 = assay type: functional, cell-based, Homo sapiens; details: Homo sapiens, NB69;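 further: growth inhibition of NB69 cells, determined by a cell viability assay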
Description: SANGER: Inhibition of human NB69 cell growth in a cell viability assay.

AM-38 = assay type: functional, cell-based, Homo sapiens; details: Homo sapiens, AM-38;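 further: growth inhibition of AM-38 cells of human origin, read out by a cell viability assay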
Description: SANGER: Inhibition of human AM-38 cell growth in a cell viability assay.

HT-144 = assay type: functional, cell-based, Homo sapiens; details: Homo sapiens, HT-144
EM-2 = assay type: functional, cell-based, Homo sapiens; details: Homo sapiens, EM-2;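 further: growth inhibition of EM-2 cells, read out with a cell viability assay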
Description: SANGER: Inhibition of human EM-2 cell growth in a cell viability assay.

TK-10 = assay type: functional, cell-based, Homo sapiens; details: Homo sapiens, TK-10;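 further: growth inhibition of TK-10 cells, read out in a cell viability assay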
Description: SANGER: Inhibition of human TK10 cell growth in a cell viability assay.

D-502MG = assay type: functional, cell-based, Homo sapiens; details: Homo sapiens, D-502MG
Description: SANGER: Inhibition of human D-502MG cell growth in a cell viability assay.

ML-2 = assay type: functional, cell-based, Homo sapiens; details: Homo sapiens, ML-2;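 further: growth inhibition of ML-2 cells, measured with a cell viability readout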
Description: SANGER: Inhibition of human ML-2 cell growth in a cell viability assay.

SJSA-1 = assay type: functional, cell-based, Homo sapiens; details: Homo sapiens, SJSA-1;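 further: growth inhibition of human SJSA-1 cells, read out through a cell viability measurement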
Description: SANGER: Inhibition of human SJSA-1 cell growth in a cell viability assay.

A704 = assay type: functional, cell-based; details: Homo sapiens;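 further: growth inhibition of human A704 cells, read out with a cell viability assay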
Description: SANGER: Inhibition of human A704 cell growth in a cell viability assay.

LB831-BLC = assay type: functional, cell-based, Homo sapiens; details: Homo sapiens, LB831-BLC;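 further: growth inhibition of LB831-BLC cells, read out with a cell viability assay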
Description: SANGER: Inhibition of human LB831-BLC cell growth in a cell viability assay.

SMILES: COC(=O)[C@H](CCSC)NC(=O)c1ccc(NC[C@@H](N)CS)cc1-c1ccccc1
- IC50 (TE-1): > 1020 nM
- IC50 (MEG-01): > 1020 nM
- IC50 (TE-6): > 1020 nM
- IC50 (ES5): > 1020 nM
- IC50 (DEL): > 1020 nM
- IC50 (A388): > 1020 nM
- IC50 (EW-13): > 1020 nM
- IC50 (SW 954): > 1020 nM
- IC50 (Ramos-2G6-4C10): > 1020 nM
- IC50 (SHP77): > 1020 nM
- IC50 (IST-MEL1): > 1020 nM
- IC50 (K5): > 1020 nM
- IC50 (A3-KAW): > 1020 nM
- IC50 (MHH-NB-11): > 1020 nM
- IC50 (SNB-75): > 1020 nM
- IC50 (LB2518-MEL): > 1020 nM
- IC50 (NCI-H82): > 1020 nM
- IC50 (Calu-6): > 1020 nM
- IC50 (NMC-G1): > 1020 nM
- IC50 (SK-LMS-1): > 1020 nM
- IC50 (MOLT-4): > 1020 nM
- IC50 (HDLM-2): > 1020 nM
- IC50 (GAK): > 1020 nM
- IC50 (SW982): > 1020 nM
- IC50 (LS-123): > 1020 nM
- IC50 (MS-1): > 1020 nM
- IC50 (LB996-RCC): > 1020 nM
- IC50 (CTB-1): > 1020 nM
- IC50 (LXF-289 cell line): > 1020 nM
- IC50 (SW684): > 1020 nM
- IC50 (TE-9): > 1020 nM
- IC50 (SF-539): > 1020 nM
- IC50 (NTERA-2-cl-D1): > 1020 nM
- IC50 (NCI-H209): > 1020 nM
- IC50 (L-428): > 1020 nM
- IC50 (NB13): > 1020 nM
- IC50 (ES8): > 1020 nM
- IC50 (ES6): > 1020 nM
- IC50 (TGW): > 1020 nM
- IC50 (Becker): > 1020 nM
- IC50 (DB): > 1020 nM
- IC50 (NB69): > 1020 nM
- IC50 (AM-38): > 1020 nM
- IC50 (HT-144): > 1020 nM
- IC50 (EM-2): > 1020 nM
- IC50 (TK-10): > 1020 nM
- IC50 (D-502MG): > 1020 nM
- IC50 (ML-2): > 1020 nM
- IC50 (SJSA-1): > 1020 nM
- IC50 (A704): > 1020 nM
- IC50 (LB831-BLC): > 1020 nM

SMILES: C[C@@H](Oc1cc(-c2cnn(C3CCNCC3)c2)cnc1N)c1c(Cl)ccc(F)c1Cl [CRIZOTINIB]
- IC50 (TE-1): > 2000 nM
- IC50 (MEG-01): 858 nM
- IC50 (TE-6): > 2000 nM
- IC50 (ES5): > 2000 nM
- IC50 (DEL): 370 nM
- IC50 (A388): > 2000 nM
- IC50 (EW-13): > 2000 nM
- IC50 (SW 954): > 2000 nM
- IC50 (Ramos-2G6-4C10): > 2000 nM
- IC50 (SHP77): > 2000 nM
- IC50 (IST-MEL1): > 2000 nM
- IC50 (K5): > 2000 nM
- IC50 (A3-KAW): > 2000 nM
- IC50 (MHH-NB-11): > 2000 nM
- IC50 (SNB-75): > 2000 nM
- IC50 (LB2518-MEL): > 2000 nM
- IC50 (NCI-H82): > 2000 nM
- IC50 (Calu-6): > 2000 nM
- IC50 (NMC-G1): > 2000 nM
- IC50 (SK-LMS-1): 1770 nM
- IC50 (MOLT-4): > 2000 nM
- IC50 (HDLM-2): > 2000 nM
- IC50 (SW982): > 2000 nM
- IC50 (LS-123): > 2000 nM
- IC50 (MS-1): > 2000 nM
- IC50 (LB996-RCC): > 2000 nM
- IC50 (CTB-1): > 2000 nM
- IC50 (LXF-289 cell line): > 2000 nM
- IC50 (SW684): > 2000 nM
- IC50 (TE-9): > 2000 nM
- IC50 (SF-539): 204 nM
- IC50 (NTERA-2-cl-D1): > 2000 nM
- IC50 (NCI-H209): > 2000 nM
- IC50 (L-428): > 2000 nM
- IC50 (NB13): > 2000 nM
- IC50 (ES8): > 2000 nM
- IC50 (ES6): > 2000 nM
- IC50 (TGW): > 2000 nM
- IC50 (Becker): > 2000 nM
- IC50 (DB): > 2000 nM
- IC50 (NB69): > 2000 nM
- IC50 (AM-38): > 2000 nM
- IC50 (HT-144): > 2000 nM
- IC50 (EM-2): 601 nM
- IC50 (TK-10): > 2000 nM
- IC50 (D-502MG): > 2000 nM
- IC50 (ML-2): > 2000 nM
- IC50 (SJSA-1): > 2000 nM
- IC50 (A704): > 2000 nM
- IC50 (LB831-BLC): > 2000 nM
